The EC50 is the concentration at which the effect is half-maximal.

The test system of one assay is CD16 (Fcγ RIII). Put plainly: Binding of SMIP bound on WIL2-S cells to soluble FcγR-MIg fusion (CD16), flow cytometry.
For a further assay, the system named is BJAB B cells. Put plainly: ADCC, 51Cr-labeled BJAB B cells with human PBMC effectors. It counts as cell-based. As to conditions: culture media containing 200 μM DMJ, 10 μM kifenunsine or 200 μM castanospermine. How it is done:
To determine the ADCC activity of purified TRU-016, labeled BJAB B cells were used as targets and human peripheral blood mononuclear cells (PBMC) as effector cells. BJAB B cells (10^7 cells) were labeled with 500 μCi/mL ^51Cr sodium chromate for 2 hours at 37° C. in IMDM/10% FBS. PBMCs were isolated from heparinized, human whole blood by fractionation over Lymphocyte Separation Media (LSM, ICN Biomedical) gradients. Reagent samples were added to RPMI media with 10% FBS and serial dilutions of each reagent were prepared. The ^51Cr labeled BJAB were added at 2×10^4 cells/well. The PBMCs were then added at 5×10^5 cells/well for a final ratio of 25:1 effectors (PBMC):targets (BJAB). Reactions were set up in quadruplicate wells of a 96 well plate. Reactions were allowed to proceed for 6 hours at 37° C. in 5% CO2 prior to harvesting and counting. CPM released was measured on a Packard TopCounNXT from 50 μl dried culture supernatant. Percent specific killing was calculated by subtracting (cpm [mean of quadruplicate samples] of sample−cpm spontaneous release)/(cpm maximal release−cpm spontaneous release)×100, and data were plotted as % specific killing versus TRU-016 concentration.

In a further assay the test system is Ramos cells. The assay is described as follows: Ramos tumor model in nude mice. It counts as in vivo. To be noted: for Median Survival Time: 200 μg i.v. on days 0, 2, 4, 6 and 8. How it is done: Nude mice are administered 5×10^6 Ramos cells subcutaneously on day 0 and injected intravenously with 200 μg control human IgG or TRU-016 test protein produced by CHO cells treated with 200 μM DMJ, 10 μM kifenunsine or 200 μM castanospermine on days 0, 2, 4, 6, and 8. Mice typically develop tumors within 6 days and die shortly thereafter. Tumors are measured three times weekly with digital calipers and LabCat software, and tumor volume is calculated as […]. Body weight is also determined once a week.
Mice are sacrificed when the tumor reaches 1500 mm^3 in size (1200 mm^3 on Fridays). Mice are also sacrificed if ulceration of a tumor occurs, the tumor inhibits the mobility of animal, or if weight loss equals or exceeds 20%.

The target of assay [1] is T1, CD37 cell surface receptor (Homo sapiens, UniProt P11049).
T1 construct: Human PBMCs are isolated over LSM density gradients and incubated with unconjugated TRU-016; endogenous in cells; host or cells: human PBMCs, gated for CD19+ B lymphocytes
T1 sequence (P11049 1-281): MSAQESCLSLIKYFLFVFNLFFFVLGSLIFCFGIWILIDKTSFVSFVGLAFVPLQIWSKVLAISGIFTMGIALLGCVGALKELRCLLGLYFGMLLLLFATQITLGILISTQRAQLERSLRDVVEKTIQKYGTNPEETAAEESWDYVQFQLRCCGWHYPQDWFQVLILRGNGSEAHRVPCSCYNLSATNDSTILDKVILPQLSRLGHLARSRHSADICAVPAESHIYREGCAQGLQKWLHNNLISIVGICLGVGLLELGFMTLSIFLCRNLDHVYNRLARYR
The assay is described as follows: TRU-016 binding to human PBMC B lymphocytes by two-color flow cytometry. As for the experimental part:
Experiments may be performed to confirm that the binding specificity of the parent antibody to the CD37 cell surface receptor is preserved in TRU-016. Human PBMCs are isolated over LSM density gradients and incubated with unconjugated TRU-016 and PE-conjugated anti-human CD19. Cells are washed and incubated with 1:100 FITC GAH IgG (Fc specific) for 45 minutes on ice. Cells are washed and analyzed by two-color flow cytometry on a FACsCalibur instrument using Cell Quest software. Cells are gated for B lymphocytes or non-B lymphocytes by CD19 staining.

The subject of a further assay is CD16. Put plainly: CD16 assays on sera of mice administered TRU-016. It counts as binding. As to conditions: sera at 48, 72, 96 and 192 hours after administration of carbohydrate-modified TRU-016.
Assay [2] concerns CD37-expressing Daudi cancer B-cell line. Put plainly: ADCC, 51Cr-labeled Daudi target cells with human PBL effector cells. The class given is cell-based. As to conditions: for EC50: CHO-K1 produced; for Fold Improvement: EC50 vs control. As for the experimental part:
TRU-016 produced as described in Example 8 is incubated with the CD37-expressing Daudi cancer B-cell line in conjunction with primary human peripheral blood lymphocytes (PBL's) effector cells to assess ADCC activity.
Daudi target cells (5×10^6) are added to a 15 ml conical tube and then centrifuged at 250×g for 5 minutes at 20° C. and the supernatant removed. The cell pellet is resuspended by the addition of 0.3 mCi Chromium-51 (^51Cr, GE Healthcare, CJ51). The cells are incubated for 75 minutes at 37° C. with 5% CO2, allowing the cells to incorporate the radioactive isotope. The cells are then washed three times to remove any unincorporated ^51 Cr. This is done by adding 10 mL of complete media—IMDM (Gibco) with 10% FBS (Gibco)—to the tube, centrifuging at 250×g for 5 minutes at 20° C. followed by removal of supernatant. The final resuspension is in 11.5 mL of complete media. TRU-016 is diluted in complete media, at concentrations that are able to generate maximal to background levels of cell lysis (500 ng/mL-0.005 ng/mL). These titrations are plated out, 50 μL/well, in a round bottom 96 well plate. The ^51Cr labeled target cells are added to the dose titrations of TRU-016 at 50 μL/well and the control wells (control media without TRU-016). PBL's are isolated from fresh heparinized whole blood by density gradient centrifugation using Lymphocyte Separation Media as per protocol (LSM, MP Biomedical, 50494/36427). […] The assay is incubated for 4.5-5 hours at 37° C., 5% CO2. The effector cells lyse the target cells relative to the TRU-016 concentration, releasing a proportional amount of ^51Cr into the assay supernatant. Following the incubation the plate is centrifuged at 250×g for 3 minutes at 20° C. A 25 μL volume of cell-free supernatant is removed from all wells to a scintillation plate (Perkin Elmer 6005185) and dried overnight. The amount of ^51Cr isotope in each well of the scintillation plate is measured using a Topcount plate reader (Perkin Elmer, C9904VO). The data are expressed as percent of specific release. Specific release is calculated as: (Sample value−Spontaneous value)/(Maximum value−Spontaneous value)*100% Spontaneous=amount of ^51Cr released from target cell only Maximum release=amount of ^51Cr released from targets treated with detergent lysing agent Background Control=amount of ^51Cr released from target cells+effector cells(No TRU-016)
A dose response is generated and fit to a 4-parameter logistic curve using SoftMax Pro software (Molecular Devices, ver 5.0.1). Titrations of TRU-016 are utilized to create dose response curves of test and reference material for comparison. The EC50 values for the treated articles are compared to the untreated control (no CS) to determine the percent increase in ADCC activity.

For another assay, the system named is Ramos B cells. Put plainly: CDC, Ramos B cells with human serum, propidium iodide. The class given is cell-based. To be noted: TRU-016 from CHO cells cultured with 200 μM DMJ, 10 μM kifenunsine or 200 μM castanospermine. As for the experimental part:
To determine the CDC activity of TRU-016 purified protein produced according to Example 2, Ramos B cells were suspended in Iscoves (Gibco/Invitrogen, Grand Island, N.Y.) at 5×10^5 cells/well in 75 μl. TRU-016 (75 μl) were added to the cells at twice the concentrations indicated. Binding reactions were allowed to proceed for 45 minutes prior to centrifugation and washing in serum-free Iscoves. Cells were resuspended in Iscoves with human serum (containing complement) at various concentrations. The cells were incubated 60 minutes at 37° C. Cells were washed by centrifugation and resuspended in staining media with 0.5 μg/ml propidium iodide. Samples were incubated 15 minutes at room temperature in the dark prior to analysis by flow cytometry using a FACsCalibur and CellQuest software (Becton Dickinson).

[3] abbreviates: CHO cells cultured with modifier at 50 or 250 μM.
Where [4] appears, read: TRU-016 from CHO cells treated with 200 μM DMJ, 10 μM kifenunsine or 200 μM castanospermine.

In the case of `OC1CN2CCC(O)C2C(O)C1O` (stereo not shown) [6,8a-diepicastanospermine], the “CD16 binding of TRU-016 supernatant (mean fluorescence intensity)” value (“CD16 binding of TRU-016 supernatant” for short) in the assay on CD16 (Fcγ RIII) (setting [3]) was “no effect”.
`OC[C@H]1NC[C@@H](O)[C@@H](O)[C@@H]1O` [DMJ, Deoxymannojirimycin]: in the assay on CD16 (Fcγ RIII) (setting [3]), the “CD16 binding of TRU-016 supernatant” value is reported as “increased”. For the same molecule, the “ADCC of TRU-016 purified protein (% specific killing)” value in the assay with BJAB B cells was “improved”.
Consider `O=C1N[C@@H]2[C@@H](O)[C@@H](O)[C@H](O)[C@@H](CO)N2C1=O` [kifunensine, Kifunensine], for which the “CD16 binding of TRU-016 supernatant” value with CD16 (Fcγ RIII) (CHO cells cultured with kifunensine 0, 0.5, 1, 3, 5 or 10 μM) was “greatly increased”. Besides, in the assay on BJAB B cells, the “ADCC of TRU-016 purified protein (% specific killing)” value is listed as “improved”.
On to `O[C@H]1[C@H]2[C@H](O)CCCN2C[C@H]1O` [swainsonine, Swainsonine], for which the “CD16 binding of TRU-016 supernatant” value in the assay on CD16 (Fcγ RIII) (setting [3]) is on record as “no effect”.
On to “CS TRU-016: TRU-016 produced by CHO cells treated with 200 μM castanospermine”, for which the “Median Survival Time” value in the assay on Ramos cells stood at 13 days.
As for “TRU-016: [G28-1 scFv VH11S (SSC-P)H WCH2 WCH3] recombinant single chain protein (SMIP) that binds to the CD37 antigen; SEQ ID NO: 2”, in assay [1] (CD19 positive gate), the “TRU-016 concentration at saturation of FITC signal on B lymphocytes” value is “approximately 1 μg/mL” and the “mean fluorescence intensity (MFI) at saturation” value was ~1000. Further, the “staining of the non-B lymphocyte population” value in assay [1] (non-B lymphocyte gate) is on record as “detectable, but very low”. For the same molecule, the “CD16 binding activity of sera containing TRU-016” value in the assay on CD16 is reported as “retained its increased CD16 binding activity”. The “ADCC activity relative to untreated TRU-016” value in assay [2] (treated with CS over a range of 100 μM-800 μM final concentration) is “significantly increased”. In the assay on Ramos B cells, the “CDC versus protein produced by untreated CHO cells” value was “similar”. Further, in the assay on Ramos cells (setting [4]), the mean survival time entry was “increase mean survival time” and the tumor volume entry was “reduce tumor volume”.

B1: Kifu TRU-016: TRU-016 produced by CHO cells treated with 10 μM kifenunsine (antibody, chains of the INN, looked up, V domains shown)
VH: EVQLVQSGAEVKKPGESLKISCKGSGYSFTGYNMNWVRQMPGKGLEWMGNIDPYYGGTTYNRKFKGQVTISADKSISTAYLQWSSLKASDTAMYYCARSVGPFDSWGQGTLVTVSS
VL: EIVLTQSPATLSLSPGERATLSCRASENVYSYLAWYQQKPGQAPRLLIYFAKTLAEGIPARFSGSGSGTDFTLTISSLEPEDFAVYYCQHHSDNPWTFGQGTKVEIK
modifications: altered glycosylation (kifunensine-treated CHO)
notes: TRU-016 produced by CHO cells treated with 10 μM kifenunsine
Take B1: the “Median Survival Time” value in the assay with Ramos cells was 10 days.

B2: None: CHO-K1 produced TRU-016 cultured in the absence of CS (untreated control) (antibody, chains of the INN, looked up, V domains shown)
VH: B1 VH
VL: B1 VL
modifications: SMIP
For the molecule B2, the 50% effective concentration (EC50) was found to be 3.25 ng/mL in assay [2] (F/F (low) Donor), 6.31 ng/mL in assay [2] (F/V (low/high) Donor) and 1.24 ng/mL in assay [2] (V/V (high) Donor). For the same molecule, the “Fold Improvement” value in assay [2] (F/F (low) Donor), in assay [2] (F/V (low/high) Donor) and in assay [2] (V/V (high) Donor) was 1.0 fold in each case.

(Values after patent publication US7846434B2, “Materials and methods for improved immunoglycoproteins” (Trubion Pharmaceuticals, Inc., priority 2006, dated 2010).)
